Source: patent US11512085B2, “Heteroaryl compound having drug activity” (SHANGHAI DUDE MEDICAL TECHNOLOGY CO., LTD, priority 2017, dated 2022)

Key:
hERG channel = hERG channel (Homo sapiens, UniProt Q12809); assay: hERG current blocking test (whole-cell patch clamp)
p-Erk/t-Erk = assay: Western blotting of p-Erk/t-Erk in anti-IgG stimulated DOHH2 cells; format: cell-based; conditions: DOHH2 cells, 5, 100, 2000 nM, 1 h, anti-IgG stimulation
Method: Biological Embodiment 4: Analysis of Influences of Test Compounds on p-Btk/t-Btk, p-PLCγ/t-PLCγ and p-Erk/t-Erk Expression Levels of DOHH2 Cells by Virtue of Western Blotting
1) DOHH2 cells on a logarithmic phase were collected;
2) a cell concentration was adjusted to a needed concentration;
3) 2 ml of cell suspension was added into a 6-well plate for performing culture, three different concentrations, that is, 5 nM, 100 nM and 2000 nM, of test samples were respectively set, and each concentration was repeated once;
4) test samples were added into plate wells, and DMSO served as control, wherein a final concentration of the DMSO was 0.1%;
5) culture was performed for 1 h; and […]
6. protein extraction and quantification […]
5) a protein concentration was determined by using Pierce™ BCA Protein Assay Kit; and
6) according to BCA protein quantification results, all samples were diluted to the same final concentration by adding 4×LDS sample buffer and 10× sample reducing agent into the RIPA buffer solution, and the solution was heated at 100° C. for 10 min. […]
10) chemiluminiscence was detected by Tanon 5200 multi.
7. Quantification of strip intensity
Intensity of each strip was quantified by using Image quant densitometry software. […]

Jeko-1 = assay: In vitro tumor cell proliferation (CellTiter-Glo), Jeko-1; format: cell-based; conditions: Homo sapiens, JeKo-1, 72 h; read-out: Growth IC50
Method: (§1) Biological Embodiment 8: Study on Effects of Active Compounds for Inhibiting In Vitro Tumor Cell Proliferation
(§2) Promega CellTiter-Glo cell activity detection kit by luminescence (Promega-G7573).
(§3) Tumor cell lines were cultured in a 5% of CO2 incubator at 37° C. according to respective culture conditions; and periodic passage was performed, and cells positioned in a logarithmic phase were taken for planking.
(§4) 3) 90 μL of cell suspension was added into each well of the culture plate, and a culture solution containing no cell was added into blank control;
(§5) 4) the culture plate was cultured overnight in the 5% of CO2 incubator having relative humidity of 100% at 37° C.
(§6) Preparation of a 400× compound storage plate: the compound was diluted from the maximum concentration gradient to the lowest concentration with DMSO. […]
(§7) The following steps were performed according to the specification of the Promega CellTiter-Glo cell activity detection kit by luminescence (Promega-G7573). […]
(§8) 9) the luminescence signal was detected on the 2104 EnVision plate reader.

OCI-LY19 = assay: In vitro tumor cell proliferation (CellTiter-Glo), OCI-LY19; format: cell-based; conditions: Homo sapiens, OCI-LY19, 72 h; read-out: Growth IC50
Method: as §1, §2, §3, §4, §5, §6, §7, §8

Sequence of hERG channel (Q12809 whole entry): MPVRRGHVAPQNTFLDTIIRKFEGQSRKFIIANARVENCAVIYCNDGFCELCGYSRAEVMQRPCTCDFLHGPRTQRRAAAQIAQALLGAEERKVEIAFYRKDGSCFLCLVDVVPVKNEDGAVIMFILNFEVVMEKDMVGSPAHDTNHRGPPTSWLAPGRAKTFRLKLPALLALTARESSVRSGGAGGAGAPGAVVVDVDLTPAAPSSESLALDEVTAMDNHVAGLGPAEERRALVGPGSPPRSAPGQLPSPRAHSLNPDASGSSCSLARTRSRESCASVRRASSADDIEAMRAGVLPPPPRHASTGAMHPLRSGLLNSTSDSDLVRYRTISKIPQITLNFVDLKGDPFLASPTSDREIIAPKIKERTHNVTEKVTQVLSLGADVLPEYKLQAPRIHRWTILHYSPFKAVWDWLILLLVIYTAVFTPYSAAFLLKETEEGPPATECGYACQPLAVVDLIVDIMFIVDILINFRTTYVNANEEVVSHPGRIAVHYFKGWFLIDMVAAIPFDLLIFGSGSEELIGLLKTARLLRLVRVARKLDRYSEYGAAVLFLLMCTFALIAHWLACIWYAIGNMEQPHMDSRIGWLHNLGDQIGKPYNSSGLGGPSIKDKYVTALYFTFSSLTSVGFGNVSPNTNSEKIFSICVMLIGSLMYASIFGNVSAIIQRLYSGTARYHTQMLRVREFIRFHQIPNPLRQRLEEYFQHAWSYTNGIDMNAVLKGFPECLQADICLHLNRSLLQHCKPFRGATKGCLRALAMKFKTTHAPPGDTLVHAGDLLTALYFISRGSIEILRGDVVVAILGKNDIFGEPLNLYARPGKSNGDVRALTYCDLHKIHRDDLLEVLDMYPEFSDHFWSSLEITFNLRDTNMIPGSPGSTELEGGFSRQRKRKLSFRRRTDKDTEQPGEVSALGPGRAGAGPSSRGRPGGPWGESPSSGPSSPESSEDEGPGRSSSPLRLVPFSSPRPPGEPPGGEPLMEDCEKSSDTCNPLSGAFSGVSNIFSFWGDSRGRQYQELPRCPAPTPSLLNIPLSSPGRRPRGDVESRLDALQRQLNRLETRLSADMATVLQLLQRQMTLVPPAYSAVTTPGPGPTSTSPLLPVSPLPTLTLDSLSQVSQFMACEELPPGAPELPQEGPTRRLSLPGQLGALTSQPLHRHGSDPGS

C=CC(=O)NN1CCCC(n2nc(-c3ccc(Oc4ccccc4)cc3)c3c(N)ncnc32)C1 (stereo not shown) [Embodiment 6, N-(3-(4-amino-3-(4-phenoxyphenyl)-1H-pyrazolo[3,4-D]pyrimidine-1-yl)-1-piperidyl)-acrylamide]
IC50 (hERG channel): 8.06 µM | relative level of p-Erk/t-Erk (p-Erk/t-Erk): obviously decreased | IC50 (Jeko-1): > 10 µM | IC50 (OCI-LY19): 6.79 µM
